Data as given in the NIST ThermoML archive (doi:10.1016/j.fluid.2007.07.023).
± gives the expanded uncertainty stated by the source.

Columns and labels:
[1] = refractive index (Na D-line) (dimensionless); conditions: 101.33 kPa, Liquid, Standard Abbe refractometry
[2] = 101.33 kPa, Liquid

Work on `Nc1ccccc1` [aniline] yielded a refractive index ([1]; 293.15 K) of 1.5962 ± 0.0007 and a mass density ([2]; 293.15 K) of 1021.72 ± 1.6 kg/m3.

`NC1CCCCC1` [cyclohexylamine] showed a refractive index ([1]; 288.15 K) of 1.4624 ± 0.0007 and a mass density ([2]; 303.15 K) of 858.2 ± 0.91 kg/m3.

With `CCCCCCCC` [octane] the refractive index ([1]; 298.15 K) was 1.3946 ± 0.0007 and the mass density ([2]; 298.15 K) was 698.49 ± 0.71 kg/m3.

Compound `Cc1ccccc1` [toluene] has a refractive index ([1]; 293.15 K) of 1.496 ± 0.0007 and a mass density ([2]; 293.15 K) of 866.78 ± 0.89 kg/m3.
